Values joined by “and” are separate entries in the source; they are usually repeats but may differ in a detail not shown here. Equal values may be shown once.
Assays:
[1] = system: CYP2D6; details: cited from earlier work
[2] = system: patients with MDD; assay: MADRS response, remission and symptom improvement (CAN-BIND-1 trial); type: in vivo, human; parameters: key to Estimate for Week, percentage symptom improvement (MADRS), mixed effects model / Estimate for CYP2C19 IM+PM, percentage symptom improvement (MADRS), mixed effects model / Estimate for CYP2C19 RM+UM, percentage symptom improvement (MADRS), mixed effects model / Estimate for CYP2D6 IM+PM, percentage symptom improvement (MADRS), mixed effects model: % points of improvement = (baseline MADRS − MADRS)/baseline; details: for share of the effect of CYP2C19 IM+PM phenotype on symptom improvement mediated by ESCadj serum concentrations: ESC-Only, bootstrap mediation analysis; for cumulative difference in symptom improvement from baseline between CYP2C19 NMs and IMs: at trial end (Week 16)
Method: (§1) The 16-week study protocol consisted of two phases following screening and baseline visits. […] Blood samples were collected on Weeks 2, 10, and 16 to measure medication levels and on Week 4 for pharmacogenetic analyses. The methods used for the quantification of serum levels of drug and metabolite concentrations is described in the Supplementary Methods.
Depressive symptoms were assessed using MADRS every 2 weeks from Week 0 to 16. The primary outcomes for response were: (1) response status (responder versus non-responder) on the last visit of Phases I and II (i.e., Week 8 and 16), and (2) the percentage of symptom improvement across visits during Phases I and II. Remission status (remitter versus non-remitter) at the end of Phases I and II was a secondary outcome for a response. These response outcomes are described in the Supplementary Methods.
(§2) We assessed the dichotomous measures of response (responder vs. non-responder and remitter vs. non-remitter) and side effects (present vs. absent) for the last timepoint in Phases I and II using logistic regression models with total MADRS score at baseline included as a covariate. Given the availability of biweekly MADRS scores and multiple time points for TSES, continuous measures of response (percentage of symptom improvement) and side effects (intensity of each category of side effects) were assessed using linear mixed-effects models that included interactions of CYP2C19 and CYP2D6 metabolizer groups with timepoint, and recruitment site and individual as random effects variables.
(§3) Using Spearman’s rank correlation, we explored whether measures of unadjusted serum concentrations were associated with symptom improvement and the intensity of side effects during Phase I and II.
Description of measures of response outcome
Response status signifies the classification of patients as “responder” or “non-responder” if MADRS reduction of ≥50% or <50% from baseline was reached, respectively. For remission status, patients are classified as “remitter” if they achieved a MADRS total score of 10 or less; otherwise, they are classified as “non-remitter”. The percentage of symptom improvement was calculated by subtracting the total MADRS score from the baseline MADRS score and then dividing by the baseline MADRS score for each of the eight time points. These measures of response were selected, since continuous measures, such as percentage symptom improvement, capture more information and have higher power, whereas dichotomous measures, such as response status, has a particular clinical relevance since it is associated with MDD prognosis.
Post-hoc mediation analyses […]
strength of the association between the CYP2C19 or CYP2D6 metabolizer groups (predictor variable) and measures of treatment response or side effect (outcome variable) must be attenuated or rendered non- […]
mediation, respectively.1,2 R package “Mediation”3 and “lavaan”4 was used for continuous and binary variables, respectively, to perform nonparametric bootstrap analyses with 5000 iterations to calculate the estimate of the […]
1Baron RM, Kenny DA. The moderator–mediator variable distinction in social psychological research: Conceptual, strategic, and statistical considerations.
2MacKinnon DP, Lockwood CM, Hoffman JM, West SG, Sheets V. A Comparison of Methods to Test Mediation and Other Intervening Variable Effects.
3Tingley D, Yamamoto T, Hirose K, Keele L, Imai K, Trinh M et al. mediation: Causal Mediation Analysis. […]
project.org/package=mediation (accessed 7 Apr2021).
4Savalei V, Rosseel Y. Computational Options for Standard Errors and Test Statistics with Incomplete Normal and Nonnormal

[3] = Dose-adjusted serum concentrations of drug and metabolite (LC-MS/MS) by CYP2C19 and CYP2D6 metabolizer group; type: in vivo, human; details: for B, ESCadj concentrations in serum, CYP2C19 RM+UM / B, ESCadj concentrations in serum, CYP2D6 IM+PM / B, ESCadj concentrations in serum, CYP2C19 IM+PM / B, S-DCTadj concentrations in serum, CYP2C19 IM+PM / B, S-DCTadj concentrations in serum, CYP2C19 RM+UM / B, S-DCTadj concentrations in serum, CYP2D6 IM+PM: vs NM
Excerpt: as §1
Serum concentrations were adjusted for dosage (i.e., ng/mL/mg). Sampling time (i.e., hours since the last dose) was entered as a covariate in the regression models to account for when the medication was taken.
The CYP2C19 metabolizer group was not included as a fixed effect covariate, as CYP2C19 is not known to be involved in the metabolism of ARI. […]
Collection of blood samples and quantification of serum drug and metabolite concentrations Participants self-reported the time at which the last dosage of the study medication was taken during the collection of the blood samples. […]
major metabolites, (S-DCT) and (DHA), were performed at the CAMH Clinical Laboratory using LC-MS/MS technology. Briefly, a mix of deuterated internal standards (Cerilliant) was added to 100 µL of each serum specimen, calibrator (Cerilliant) and quality control (MassCheck Antidepressants/Neuroleptics, Level 1 and Level 2). Proteins were precipitated with 300 µL of 9:1 Acetonitrile:Methanol (Sigma-Aldrich) followed by 5 min centrifugation at 9000 rpm. 25 µL of each supernatant was diluted with 200 µL of 0.1% Formic acid (Sigma-Aldrich) and then analyzed on the LC-MS/MS platform consisting of ThermoFisher TSQ Quantum Ultra mass spectrometer coupled with ThermoFisher Surveyor LC pump and HTC PAL autosampler fitted with a Kinetex F5 2.6 µm, 100 x 2.1 mm column (Phenomenex). Six minute gradient elution with 0.1% Formic Acid (mobile phase A) and Acetonitrile (mobile phase B) was applied. Collision energies ranged from 14 to […]
calibration curve ranging from 10 to 1000 ng/mL for each analyte.
Vendor nominal means for quality controls were used to assess the assay accuracy for each of the four analytes […]
precision was considered acceptable assay performance.
Data was analyzed with ThemoFisher XCalibur software.

[4] = system: patients with MDD; assay: Toronto side effects scale (TSES), treatment-related side effects; type: in vivo, human; details: Week 16
Excerpt: The Toronto side effects scale (TSES), administered on Weeks 2, 4, 10, 12, and 16, is a clinical instrument designed to assess the frequency and severity of treatment-related side effects on 5-point Likert scales. The “intensity” score is derived by multiplying the frequency and severity of each side effect. The items assessed can be broadly categorized into the central nervous system (CNS), gastrointestinal (GI), and sexual side effects, as well as weight gain (Table S1)[28]. The primary outcomes for side effects were both dichotomous and continuous: (1) absence or presence of side effects within the four categories on the last visit of Phases I and II and (2) the intensity of each category of side effect across visits during each Phase.
as §2, §3

[5] = vs NM, Phase II, by treatment arm

CN(C)CCC[C@@]1(c2ccc(F)cc2)OCc2cc(C#N)ccc21 [ESC, Escitalopram]
inhibition of CYP2D6 in vitro [1]: weak inhibitors
Estimate for Week, percentage symptom improvement (MADRS), mixed effects model ([2]; Phase I (Weeks 0–8)): 4.14
Estimate for Week, percentage symptom improvement (MADRS), mixed effects model ([2]; Phase II (Weeks 8–16), by treatment arm): 1.47
share of the effect of CYP2C19 IM+PM phenotype on symptom improvement mediated by ESCadj serum concentrations ([2]; Phase II): 45%
share of the effect of CYP2C19 IM+PM phenotype on symptom improvement mediated by ESCadj serum concentrations ([2]; Phase II, listed as ESC-Only): about 45%
cumulative difference in symptom improvement from baseline between CYP2C19 NMs and IMs [2]: 11.5%
cumulative difference in symptom improvement from baseline between CYP2C19 NMs and IMs ([2]; listed as ESC-Only): 11.52%
overall response rate ([2]; end of Phase I (Week 8), MADRS reduction ≥50% from baseline, 83/178): 46.62%
overall response rate ([2]; end of Phase II (Week 16), responders continued ESC, non-responders augmented with ARI, 122/178): 68.54%
Estimate for CYP2C19 IM+PM*Week, percentage symptom improvement (MADRS), mixed effects model ([2]; vs NM, Phase I): -1.48
Estimate for CYP2C19 IM+PM, percentage symptom improvement (MADRS), mixed effects model ([2]; vs NM, Phase I): 3.27
Estimate for CYP2C19 RM+UM*Week, percentage symptom improvement (MADRS), mixed effects model ([2]; vs NM, Phase I): -0.73
Estimate for CYP2C19 RM+UM, percentage symptom improvement (MADRS), mixed effects model ([2]; vs NM, Phase I): 3.74
Estimate for CYP2D6 IM+PM*Week, percentage symptom improvement (MADRS), mixed effects model ([2]; vs NM, Phase I): 0.31
Estimate for CYP2D6 IM+PM, percentage symptom improvement (MADRS), mixed effects model ([2]; vs NM, Phase I): 3.13
Estimate for CYP2C19 IM+PM, percentage symptom improvement (MADRS), mixed effects model [2, 5]: 26.15
Estimate for CYP2C19 RM+UM*Week, percentage symptom improvement (MADRS), mixed effects model [2, 5]: -1.04
Estimate for CYP2C19 RM+UM, percentage symptom improvement (MADRS), mixed effects model [2, 5]: 14.10
Estimate for CYP2D6 IM+PM*Week, percentage symptom improvement (MADRS), mixed effects model [2, 5]: -0.41
Estimate for CYP2D6 IM+PM, percentage symptom improvement (MADRS), mixed effects model [2, 5]: 1.19
Estimate (B) for CYP2C19 IM+PM*Week, average percentage change in MADRS from baseline, mixed effects model ([2]; vs NM, Phase II, by treatment arm, listed as ESC-Only): -2.34
average percentage change in MADRS from baseline lower in CYP2C19 IMs than in NMs ([2]; with every two-week assessment, Phase II, simple effects analysis): 2.54%
higher mean ESCadj concentrations, CYP2C19 IM + PMs compared to NMs ([3]; Week 2 (Phase I)): 42.9%
difference in ESCadj concentrations between CYP2C19 NMs and IM + PMs ([3]; Week 10, ESC + ARI): 39.6%
higher levels of ESCadj in serum, CYP2D6 IM + PMs compared to NMs ([3]; Week 10, ESC-Only): 58.9%
difference in ESCadj concentrations between CYP2C19 NMs and IM + PMs ([3]; Week 16, ESC + ARI): 58.2%
higher levels of ESCadj in serum, CYP2D6 IM + PMs compared to NMs ([3]; Week 16, ESC-Only): 59.2%
ESC levels in CYP2D6 IM+PMs, ESC+ARI compared to ESC-Only ([3]; Week 16, ARI coadministration): lower
ESCadj serum levels in CYP2D6 NMs, ESC + ARI compared to ESC-Only ([3]; Weeks 10 and 16, ARI coadministration): significantly higher
B, ESCadj concentrations in serum, CYP2C19 RM+UM ([3]; Week 2 (Phase I)): -0.05
B, ESCadj concentrations in serum, CYP2D6 IM+PM ([3]; Week 2 (Phase I)): 0.31
B, ESCadj concentrations in serum, CYP2C19 IM+PM ([3]; Week 2 (Phase I), linear regression, dose-adjusted): 0.59
B, ESCadj concentrations in serum, CYP2C19 IM+PM ([3]; Week 10, ESC+ARI arm): 0.69
B, ESCadj concentrations in serum, CYP2C19 RM+UM ([3]; Week 10, ESC+ARI arm): 0.01
B, ESCadj concentrations in serum, CYP2D6 IM+PM ([3]; Week 10, ESC+ARI arm): -0.37
B, ESCadj concentrations in serum, CYP2C19 IM+PM ([3]; Week 10, ESC-Only arm): 0.65
B, ESCadj concentrations in serum, CYP2C19 RM+UM ([3]; Week 10, ESC-Only arm): 0.14
B, ESCadj concentrations in serum, CYP2D6 IM+PM ([3]; Week 10, ESC-Only arm): 0.71 and 0.65
B, ESCadj concentrations in serum, CYP2C19 IM+PM ([3]; Week 16, ESC+ARI arm): 0.77
B, ESCadj concentrations in serum, CYP2C19 RM+UM ([3]; Week 16, ESC+ARI arm): 0.17
B, ESCadj concentrations in serum, CYP2D6 IM+PM ([3]; Week 16, ESC+ARI arm): -0.32
B, ESCadj concentrations in serum, CYP2C19 IM+PM ([3]; Week 16, ESC-Only arm): 0.66
B, ESCadj concentrations in serum, CYP2C19 RM+UM ([3]; Week 16, ESC-Only arm): -0.10
odds of reporting a CNS side effect, CYP2D6 NMs compared to IM + PMs (factor) [4]: 7.69
odds of reporting decreased sleepiness, CYP2D6 NMs compared to IM + PMs [4]: 25.53
odds of reporting sweating, CYP2D6 NMs compared to IM + PMs ([4]; listed as ESC-Only): 29.21

CNCCC[C@@]1(c2ccc(F)cc2)OCc2cc(C#N)ccc21 [S-DCT, S-desmethylcitalopram]
inhibition of CYP2D6 in vitro [1]: weak inhibitors
B, S-DCTadj concentrations in serum, CYP2C19 IM+PM ([3]; Week 2 (Phase I)): -0.04
B, S-DCTadj concentrations in serum, CYP2C19 RM+UM ([3]; Week 2 (Phase I)): 0.04
B, S-DCTadj concentrations in serum, CYP2D6 IM+PM ([3]; Week 2 (Phase I)): -0.08
B, S-DCTadj concentrations in serum, CYP2C19 IM+PM ([3]; Week 10, ESC+ARI arm): -0.02
B, S-DCTadj concentrations in serum, CYP2C19 RM+UM ([3]; Week 10, ESC+ARI arm): 0.14
B, S-DCTadj concentrations in serum, CYP2D6 IM+PM ([3]; Week 10, ESC+ARI arm): -0.11
B, S-DCTadj concentrations in serum, CYP2C19 IM+PM ([3]; Week 10, ESC-Only arm): -0.12
B, S-DCTadj concentrations in serum, CYP2C19 RM+UM ([3]; Week 10, ESC-Only arm): 0.02
B, S-DCTadj concentrations in serum, CYP2D6 IM+PM ([3]; Week 10, ESC-Only arm): -0.11
B, S-DCTadj concentrations in serum, CYP2C19 IM+PM ([3]; Week 16, ESC+ARI arm): -0.12
B, S-DCTadj concentrations in serum, CYP2C19 RM+UM ([3]; Week 16, ESC+ARI arm): 0.08
B, S-DCTadj concentrations in serum, CYP2D6 IM+PM ([3]; Week 16, ESC+ARI arm): -0.12
B, S-DCTadj concentrations in serum, CYP2C19 IM+PM ([3]; Week 16, ESC-Only arm): -0.09
B, S-DCTadj concentrations in serum, CYP2C19 RM+UM ([3]; Week 16, ESC-Only arm): 0.07
B, S-DCTadj concentrations in serum, CYP2D6 IM+PM ([3]; Week 16, ESC-Only arm): -0.12

— article PMC9448818 (Translational Psychiatry, 2022)
